Assay results reported in ChEMBL document CHEMBL3137667, “[Drug-induced liver injury; fourteenth updated edition of the bibliographic database of liver injuries and related drugs]” (Gastroenterol Clin Biol, 2004).

What was measured:
[1] = human, serum, 4383 h
[2] = human, serum
[3] = human
[4] = human; remark: listed apart in the source
[5] = human; remark: listed apart in the source
[6] = human; remark: listed apart in the source
[7] = human; remark: listed apart in the source
[8] = human, serum; remark: listed apart in the source
[9] = Highest frequency of moderate liver toxicity observed during clinical trials, expressed as a percentage. [column '% BIOL' in source]; conditions: human
[10] = human; remark: listed apart in the source
[11] = human; remark: listed apart in the source
[12] = Highest frequency of acute liver toxicity observed during clinical trials, expressed as a percentage. [column '% AIGUE' in source]; conditions: human
[13] = Presence of at least one case with successful reintroduction. [column 'REINT' in source]; conditions: human
[14] = human; remark: listed apart in the source
[15] = Times to onset, minimal and maximal, observed in the indexed observations. [column 'DELAI' in source]; conditions: human
[16] = human; remark: listed apart in the source
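Throughout, for Hepatotoxicity (association with vascular disease): count of indexed literature references reporting vascular liver injury in humans, e.g. peliosis hepatitis, hepatic veno-occlusive disease or Budd-Chiari syndrome.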
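Throughout, for Hepatotoxicity (benign tumour): value is a count of indexed literature references citing a benign tumour confirmed by histopathology.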
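Throughout, for Hepatotoxicity (choleostasis): human cholestatic liver injury, shown by histopathology or by peak ALT or AST elevation over alkaline phosphatase ratio below 2, value counts indexed literature reports.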
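Throughout, for Hepatotoxicity (chronic liver disease): chronic liver injury confirmed by histopathology or persistently raised serum aminotransferase activity beyond 6 months, value given as the count of indexed literature references.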
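Throughout, for Hepatotoxicity (cirrhosis): value is a count of indexed literature references reporting cirrhosis confirmed by histopathology.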
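Throughout, for Hepatotoxicity (cytolytic): human cytolytic liver injury, shown by histopathology or by a ratio above 5 of peak ALT or AST elevation to alkaline phosphatase elevation, value counts indexed references.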
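Throughout, for Hepatotoxicity (granulomatous hepatitis): value is a count of indexed literature references reporting granulomatous liver disease confirmed by histopathology.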
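Throughout, for Hepatotoxicity (malignant tumour): malignant tumour confirmed by histopathology, value gives the count of indexed literature references reporting it.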
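Throughout, for Hepatotoxicity (severe hepatitis): human clinical data: severe hepatitis, meaning potentially life-threatening liver failure or clinically observed cases, the value counts how many indexed literature references report it.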
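Throughout, for Hepatotoxicity (steatosis): steatosis confirmed by histopathology, value is the count of indexed references.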

Molecule	Hepatotoxicity (chronic liver disease) [1]	Hepatotoxicity (moderate) [2]	Hepatotoxicity (benign tumour) [3]	Hepatotoxicity (steatosis) [4]	Hepatotoxicity (association with vascular disease) [5]	Hepatotoxicity (severe hepatitis) [6]	Hepatotoxicity (malignant tumour) [7]	Hepatotoxicity (acute) [8]	Hepatotoxicity (moderate) [9] [%]	Hepatotoxicity (cytolytic) [10]	Hepatotoxicity (choleostasis) [11]	Hepatotoxicity (acute) [12] [%]	Hepatotoxicity (successful reintroduction) [13]	Hepatotoxicity (cirrhosis) [14]	Hepatotoxicity (time to onset) [15]	Hepatotoxicity (granulomatous hepatitis) [16]	also measured
O=c1cc[nH]c(=S)[nH]1 [THIOURACIL]	0	0	0	0	0	1	0	5	0	1	1	5.9	yes	0	1 day - 3 weeks	0	
Nc1cc(N2CCCCC2)nc(N)[n+]1[O-] [MINOXIDIL]	0	5	0	0	0	0	0	0	4.3	0	0	0	yes	0	3 days - 1 year	0	
CCCCc1nc(Cl)c(CO)n1Cc1ccc(-c2ccccc2-c2nn[nH]n2)cc1 [LOSARTAN]	1	11	0	0	0	1	0	5	20	4	0	0	yes	0	2 weeks - 5 months	0	
Cc1c(OCC(F)(F)F)ccnc1C[S+]([O-])c1nc2ccccc2[nH]1 (stereo unspecified) [LANSOPRAZOLE]	0	7	0	0	0	1	0	4	10.5	3	1	0	yes	0	13 days - 5 weeks	0	
CN(C)C(=N)N=C(N)N [METFORMIN]	0	1	0	0	0		0	10					yes	0	1 week - 17 months		Hepatotoxicity (severe hepatitis) ([6]; Liver): 0; Hepatotoxicity (moderate) ([9]; Liver): 0%; Hepatotoxicity (cytolytic) ([10]; Liver): 3; Hepatotoxicity (choleostasis) ([11]; Liver): 6; Hepatotoxicity (acute) ([12]; Liver): 0%; Hepatotoxicity (granulomatous hepatitis) ([16]; Liver): 0
ENOXAPARIN	0	8	0	0	0	0	0	0	36	0	0	0	yes	0	12 hours - 2 weeks	0	
O=C1c2ccccc2C(=O)C1c1ccc(F)cc1 [FLUINDIONE]	0	0	0	0	0	0	0	7	0	5	1	0	yes	0	1 week - 3 months	0	
O=C1NS(=O)(=O)c2ccccc21 [SACCHARIN]	0	0	0	0	0		0	1					yes	0	2 weeks - 2 months		Hepatotoxicity (severe hepatitis) ([6]; Liver): 0; Hepatotoxicity (moderate) ([9]; Liver): 0%; Hepatotoxicity (cytolytic) ([10]; Liver): 1; Hepatotoxicity (choleostasis) ([11]; Liver): 0; Hepatotoxicity (acute) ([12]; Liver): 0%; Hepatotoxicity (granulomatous hepatitis) ([16]; Liver): 0
Nc1cc(-c2ccncc2)c[nH]c1=O [INAMRINONE]	0	9	0	0	0	0	0	6	33	2	2	0	yes	0	1 week - 3 weeks	0	
CN(C)CC[C@@H](c1ccc(Cl)cc1)c1ccccn1 [DEXCHLORPHENIRAMINE]	0	0	0	0	0		0	1		1	0		yes	0	9 days	0	Hepatotoxicity (severe hepatitis) ([6]; Liver): 0; Hepatotoxicity (moderate) ([9]; Liver): 0%; Hepatotoxicity (acute) ([12]; Liver): 0%
O=c1[nH]c(=O)n(C2CCCO2)cc1F (stereo unspecified) [TEGAFUR]	2	2	0	0	0	3	0	3	17.5	1	0	0	yes	1	1.5 months - 9 months	0	
